Patent publication US10703740B2, “Substituted benzimidazoles, their preparation and their use as pharmaceuticals” (NEOMED Institute, priority 2015, dated 2020)
Like-named read-outs stand apart in the source and are kept apart here.

System: human C-Myc transcription in MV-4-11 cells
Test: Transcription of human C-Myc in human leukemic MV-4-11 cells (QuantiGene 2.0)
Assay type: cell-based
Conditions: inhibition of C-Myc mRNA, 4 hours treatment, read-out: IC50 MV-4-11 Cell
Description: The effect of compounds on transcription of human C-Myc gene is monitored in human B-myelomonocytic leukemia cell line MV-4-11 (from American Type Culture Collection (ATCC), Manassas, Va., USA) using QuantiGene 2.0 assay kit (Affymetrix, Santa Clara, Calif., USA).
Typically, 8,000 MV-4-11 cells are plated in sterile 96-well plates (Costar #3598 from Fisher Scientific Canada, Ottawa, Ontario, Canada) in Iscove's medium supplemented with 10% fetal bovine serum, glutamine (2 mM), and penicillin (100 I.U.) and streptomycin (100 μg/mL) (all from Wisent Inc., St. Bruno, Quebec, Canada). Compounds are dissolved in DMSO at 30 mM. A series of 1:3 dilutions are first made in DMSO, and further 1:100 dilutions are made in serum-containing cell culture media. The final concentration of DMSO is 0.1% in cell culture media. After cells are treated with various concentrations of test compound for 4 hours, cells are lysed using Quantigene 2.0 sample processing kit (# QS0100). C-Myc mRNA is detected using a QuantiGene 2.0 assay kit (# QS0009) with gene-specific probe to human C-Myc (# SA-50182) following the manufacturer's recommendations. Luminescene signals are read on Flexstation II microplate reader (Molecular Devices, Sunnyvale, Calif., USA).

| Compound | IC50 (Homo sapiens, MV4-11, 4 h) [nM] | IC50 [nM] |
| --- | --- | --- |
| COC[C@H](C)n1c(C2CC2)nc2ccc(-c3cc(C)c(=O)n(C)c3)cc21 [Compound 17, 5-[2-cyclopropyl-3-[(1S)-2-methoxy-1-methylethyl]benzimidazol-5-yl]-1,3-dimethyl pyridin-2-one] | 810 | – |
| COCCn1c(C2CCCCC2)nc2ccc(-c3cc(C)c(=O)n(C)c3)cc21 [Compound 38, 5-(2-cyclohexyl-1-(2-methoxyethyl)-1H-benzo[d]imidazol-6-yl)-1,3-dimethylpyridin-2(1H)-one] | 240 | – |
| COC(C)Cn1cnc2ccc(-c3cc(C)c(=O)n(C)c3)cc21 (centres unmarked) [Compound 22a, 5-[3-(2-methoxypropyl)benzimidazol-5-yl]-1,3-dimethylpyridin-2-one] | 840 | – |
| COC[C@H](C)n1c(C2CCC(F)(F)CC2)nc2ccc(-c3cc(C)c(=O)n(C)c3)cc21 [Compound 56, (S)-5-(2-(4,4-difluorocyclohexyl)-1-(1-methoxypropan-2-yl)-1H-benzo[d]imidazol-6-yl)-1,3-dimethylpyridin-2(1H)-one] | 220 | – |
| COC[C@H](C)n1c(C2CCOCC2)nc2ccc(-c3cc(C)c(=O)n(C)c3)cc21 [Compound 18, 5-[3-[(1S)-2-methoxy-1-methylethyl]-2-tetrahydropyran-4-yl-benzimidazol-5-yl]-1,3-dimethylpyridin-2-one] | 170 | – |
| COC(C)Cn1c(C)nc2ccc(-c3cc(C)c(=O)n(C)c3)cc21 (centres unmarked) [Compound 21b, 5-[3-(2-methoxypropyl)-2-methylbenzimidazol-5-yl]-1,3-dimethylpyridin-2-one] | – | 590 |
| COC(C)Cn1c(C2CCOCC2)nc2ccc(-c3cc(C)c(=O)n(C)c3)cc21 (single isomer, unassigned) [Compound 35a, 5-[3-(2-methoxypropyl)-2-tetrahydropyran-4-yl-benzimidazol-5-yl]-1,3-dimethyl pyridin-2-one] | – | 180 |
| COC1CC(c2nc3ccc(-c4cc(C)c(=O)n(C)c4)cc3n2CCOC(C)C)C1 (centres unmarked) [Compound 65, 5-[1-(2-isopropoxyethyl)-2-(3-methoxycyclobutyl)-1H-benzo[d]imidazol-6-yl]-1,3-dimethylpyridin-2(1H)-one] | – | 25 |
| COC(C)Cn1c(C2CC2)nc2ccc(-c3cc(C)c(=O)n(C)c3)cc21 (single isomer, unassigned) [Compound 23b, 5-[2-cyclopropyl-3-(2-methoxypropyl)benzimidazol-5-yl]-1,3-dimethylpyridin-2-one] | – | 730 |
| 5-[2-(3-methoxycyclobutyl)-1-(2-(2,2,2-trifluoroethoxy)ethyl)-1H-benzo[d]imidazol-6-yl]-1,3-dimethylpyridin-2(1H)-one [Compound 63] | – | 17 |
| CCOC[C@H](C)n1c(C2CCOCC2)nc2ccc(-c3cc(C)c(=O)n(C)c3)cc21 [Compound 48, (S)-5-(1-(1-ethoxypropan-2-yl)-2-(tetrahydro-2H-pyran-4-yl)-1H-benzo[d]imidazol-6-yl)-1,3-dimethylpyridin-2(1H)-one] | 260 | – |
| Cc1cc(-c2ccc3nc(C4CCOCC4)n(CC(C)C(F)(F)F)c3c2)cn(C)c1=O (centres unmarked) [Compound 46a, 1,3-dimethyl-5-(2-(tetrahydro-2H-pyran-4-yl)-1-(3,3,3-trifluoro-2-methylpropyl)-1H-benzo[d]imidazol-6-yl)pyridin-2(1H)-one] | 220 | – |
| COCCn1c(Cc2ccccc2)nc2ccc(-c3cc(C)c(=O)n(C)c3)cc21 [Compound 37, 5-(2-benzyl-1-(2-methoxyethyl)-1H-benzo[d]imidazol-6-yl)-1,3-dimethylpyridin-2(1H)-one] | 490 | – |
| COC[C@@H](C)n1c(C(F)(F)F)nc2ccc(-c3cc(C)c(=O)n(C)c3)cc21 [Compound 26, 5-[3-[(1R)-2-methoxy-1-methyl-ethyl]-2-(trifluoromethyl)benzimidazol-5-yl]-1,3-dimethylpyridin-2-one] | 230 | – |

Continued, values first:

| IC50 (Homo sapiens, MV4-11, 4 h) [nM] | IC50 [nM] | Compound |
| --- | --- | --- |
| 98 | – | COCCn1c(C2CCC(F)(F)CC2)nc2ccc(-c3cc(C)c(=O)n(C)c3)cc21 [Compound 44, 5-(2-(4,4-difluorocyclohexyl)-1-(2-methoxyethyl)-1H-benzo[d]imidazol-6-yl)-1,3-dimethylpyridin-2(1H)-one] |
| 27 | – | CCO[C@@H](C)Cn1c(C2CCOCC2)nc2ccc(-c3cc(C)c(=O)n(C)c3)cc21 [Compound 40, (S)-5-(1-(2-ethoxypropyl)-2-(tetrahydro-2H-pyran-4-yl)-1H-benzo[d]imidazol-6-yl)-1,3-dimethylpyridin-2(1H)-one] |
| 50 | – | CO[C@H]1C[C@@H](c2nc3ccc(-c4cc(C)c(=O)n(C)c4)cc3n2CCOC(F)(F)F)C1 [Compound 28b] |
| 72 | – | COC[C@@H](C)n1c(C2CCC(F)(F)CC2)nc2ccc(-c3cc(C)c(=O)n(C)c3)cc21 [Compound 57, (R)-5-(2-(4,4-difluorocyclohexyl)-1-(1-methoxypropan-2-yl)-1H-benzo[d]imidazol-6-yl)-1,3-dimethylpyridin-2(1H)-one] |
| 23 | – | Cc1cc(-c2ccc3nc(C4CCOCC4)n(CCOCC(F)(F)F)c3c2)cn(C)c1=O [Compound 41, 1,3-dimethyl-5-(2-(tetrahydro-2H-pyran-4-yl)-1-(2-(2,2,2-trifluoroethoxy)ethyl)-1H-benzo[d]imidazol-6-yl)pyridin-2(1H)-one] |
| 160 | – | CO[C@H](C)Cn1c(C2CCC(F)(F)CC2)nc2ccc(-c3cc(C)c(=O)n(C)c3)cc21 [Compound 58, (R)-5-(2-(4,4-difluorocyclohexyl)-1-(2-methoxypropyl)-1H-benzo[d]imidazol-6-yl)-1,3-dimethylpyridin-2(1H)-one] |
| 92 | – | Cc1cc(-c2ccc3nc(C4CC(F)(F)C4)n(CCOC(F)(F)F)c3c2)cn(C)c1=O [Compound 27, 5-[2-(3,3-difluorocyclobutyl)-3-[2-(trifluoromethoxy)ethyl]benzimidazol-5-yl]-1,3-dimethylpyridin-2-one] |
| 22 | – | Cc1cc(-c2ccc3nc(C4CCOCC4)n(CCOC(C)C)c3c2)cn(C)c1=O [Compound 49, 5-(1-(2-isopropoxyethyl)-2-(tetrahydro-2H-pyran-4-yl)-1H-benzo[d]imidazole-6-yl)-1,3-dimethylpyridin-2(1H)-one] |
| 90 | – | CO[C@@H](C)Cn1c(C2CCC(F)(F)CC2)nc2ccc(-c3cc(C)c(=O)n(C)c3)cc21 [Compound 59, (S)-5-(2-(4,4-difluorocyclohexyl)-1-(2-methoxypropyl)-1H-benzo[d]imidazol-6-yl)-1,3-dimethylpyridin-2(1H)-one] |
| 27 | – | CCOC[C@@H](C)n1c(C2CCOCC2)nc2ccc(-c3cc(C)c(=O)n(C)c3)cc21 [Compound 47, (R)-5-(1-(1-ethoxypropan-2-yl)-2-(tetrahydro-2H-pyran-4-yl)-1H-benzo[d]imidazol-6-yl)-1,3-dimethylpyridin-2(1H)-one] |
| 87 | – | Cc1cc(-c2ccc3nc([C@@H]4CCCO4)n(CCOC(F)(F)F)c3c2)cn(C)c1=O (stereo in doubt) [Compound 30b, 1,3-dimethyl-5-[2-tetrahydrofuran-2-yl-3-[2-(trifluoromethoxy)ethyl]benzimidazol-5-yl]pyridin-2-one] |
| 53 | – | CCO[C@@H](C)Cn1c(C2CCC(F)(F)CC2)nc2ccc(-c3cc(C)c(=O)n(C)c3)cc21 [Compound 55, (S)-5-(2-(4,4-difluorocyclohexyl)-1-(2-ethoxypropyl)-1H-benzo[d]imidazol-6-yl)-1,3-dimethylpyridin-2(1H)-one] |
